From ChEMBL document CHEMBL1144327, “Carbonic anhydrase inhibitors. Inhibition of the membrane-bound human and bovine isozymes IV with sulfonamides” (Bioorg Med Chem Lett, 2005)

These compounds were tested against T1, Carbonic anhydrase 4 (Bos taurus, UniProt Q95323).
T1 sequence (Q95323 whole entry): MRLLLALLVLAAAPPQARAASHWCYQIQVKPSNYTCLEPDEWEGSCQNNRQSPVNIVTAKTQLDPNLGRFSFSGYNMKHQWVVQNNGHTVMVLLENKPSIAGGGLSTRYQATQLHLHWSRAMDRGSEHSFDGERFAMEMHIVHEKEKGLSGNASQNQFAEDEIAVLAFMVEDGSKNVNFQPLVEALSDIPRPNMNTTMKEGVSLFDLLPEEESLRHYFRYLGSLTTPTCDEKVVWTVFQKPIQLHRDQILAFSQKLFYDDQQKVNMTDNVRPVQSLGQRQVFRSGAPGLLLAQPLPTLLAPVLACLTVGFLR
Description: Inhibitory activity against bovine carbonic anhydrase IV (bCAIV)

| Ki [nM] | SMILES |
| --- | --- |
| 50 | Nc1ccc(S(=O)(=O)NCc2ccc(S(N)(=O)=O)cc2)cc1 |
| 240 | Nc1cc(C(F)(F)F)c(S(N)(=O)=O)cc1S(N)(=O)=O [2,4-DISULFAMYLTRIFLUOROMETHYLANILINE] |
| 290 | Cc1ccc(-c2cc(C(F)(F)F)nn2-c2ccc(S(N)(=O)=O)cc2)cc1 [CELECOXIB] |

Each compound was assayed against Carbonic anhydrase 4 (Homo sapiens, UniProt P22748).
Carbonic anhydrase 4 (Homo sapiens, UniProt P22748), sequence (P22748 whole entry): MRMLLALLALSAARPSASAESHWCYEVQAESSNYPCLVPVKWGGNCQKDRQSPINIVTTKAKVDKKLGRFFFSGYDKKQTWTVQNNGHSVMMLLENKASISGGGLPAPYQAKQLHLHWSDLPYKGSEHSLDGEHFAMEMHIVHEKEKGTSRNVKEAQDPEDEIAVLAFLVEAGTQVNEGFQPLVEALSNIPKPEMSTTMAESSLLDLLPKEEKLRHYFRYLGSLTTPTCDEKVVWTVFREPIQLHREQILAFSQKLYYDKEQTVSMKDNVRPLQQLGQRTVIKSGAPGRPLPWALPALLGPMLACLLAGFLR
Description: Inhibitory activity against human carbonic anhydrase IV (hCAIV)

| Ki [nM] | SMILES |
| --- | --- |
| 84 | Nc1ccc(S(=O)(=O)NCc2ccc(S(N)(=O)=O)cc2)cc1 |
| 920 | Nc1ccc(S(N)(=O)=O)cc1I |
| 96 | Nc1ccc(S(N)(=O)=O)cc1Br |
| 7750 | Nc1cccc(S(N)(=O)=O)c1 |
| 910 | Nc1ccc(S(N)(=O)=O)cc1F |
| 450 | Nc1ccc(S(N)(=O)=O)cc1Cl |
| 7700 | NNc1ccc(S(N)(=O)=O)cc1 |
| 880 | Cc1ccc(-c2cc(C(F)(F)F)nn2-c2ccc(S(N)(=O)=O)cc2)cc1 [CELECOXIB] |
| 8600 | NCc1ccc(S(N)(=O)=O)cc1 [MAFENIDE] |
| 9760 | Nc1ccc(S(N)(=O)=O)cc1 [SULFANILAMIDE] |
| 4900 | CC1(C)O[C@@H]2[C@@H](CO[C@@]3(COS(N)(=O)=O)OC(C)(C)O[C@@H]23)O1 [TOPIRAMATE] |
